Biological target: USP7 (Homo sapiens, UniProt Q93009)
Test: USP7 inhibitory potency (IC50)
Assay type: biochemical
Description: Activity for compounds described herein is provided in Table 2, wherein potency levels are provided as follows: (Potency: USP7 IC50: A<0.01 μM; B=0.01-0.1 μM; C=>0.1 μM.

Chain of USP7 (Q93009 whole entry): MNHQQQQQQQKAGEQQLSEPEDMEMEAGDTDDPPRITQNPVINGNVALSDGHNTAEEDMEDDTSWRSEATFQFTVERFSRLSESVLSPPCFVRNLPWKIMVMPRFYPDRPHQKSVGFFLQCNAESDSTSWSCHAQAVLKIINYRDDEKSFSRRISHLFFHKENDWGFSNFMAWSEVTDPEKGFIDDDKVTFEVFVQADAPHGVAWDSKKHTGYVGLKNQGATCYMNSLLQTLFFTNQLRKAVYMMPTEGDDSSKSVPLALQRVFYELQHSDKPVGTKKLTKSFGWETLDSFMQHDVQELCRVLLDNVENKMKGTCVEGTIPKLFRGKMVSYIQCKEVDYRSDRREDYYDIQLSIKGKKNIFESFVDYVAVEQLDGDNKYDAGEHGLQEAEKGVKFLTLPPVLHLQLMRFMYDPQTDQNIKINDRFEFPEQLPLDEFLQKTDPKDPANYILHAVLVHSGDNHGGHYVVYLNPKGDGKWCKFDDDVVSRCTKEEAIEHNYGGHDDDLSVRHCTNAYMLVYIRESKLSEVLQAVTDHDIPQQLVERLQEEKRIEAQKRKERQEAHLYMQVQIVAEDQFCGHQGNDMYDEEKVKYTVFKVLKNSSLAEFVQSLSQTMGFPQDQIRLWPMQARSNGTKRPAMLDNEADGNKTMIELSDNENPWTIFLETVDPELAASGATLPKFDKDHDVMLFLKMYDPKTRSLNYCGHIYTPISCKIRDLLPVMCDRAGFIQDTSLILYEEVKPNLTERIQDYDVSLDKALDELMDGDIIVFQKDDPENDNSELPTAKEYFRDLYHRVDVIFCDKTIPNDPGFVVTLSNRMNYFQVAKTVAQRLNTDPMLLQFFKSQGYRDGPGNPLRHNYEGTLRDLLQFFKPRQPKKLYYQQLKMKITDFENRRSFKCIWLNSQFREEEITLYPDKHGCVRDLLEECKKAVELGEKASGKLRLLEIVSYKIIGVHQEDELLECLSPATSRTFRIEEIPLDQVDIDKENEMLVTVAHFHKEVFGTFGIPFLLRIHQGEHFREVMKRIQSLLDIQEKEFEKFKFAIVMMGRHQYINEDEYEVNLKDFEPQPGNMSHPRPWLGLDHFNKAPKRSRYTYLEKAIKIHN

Structure (SMILES)	IC50
Cc1cc(Cl)cc(-c2ncnc3cc(CN4C(=O)CCC4(C)C#N)sc23)c1CC1CNCC(C)(C)O1 (stereo not drawn) [Example 195, 1-((4-(5-chloro-2-((6,6-dimethylmorpholin-2-yl)methyl)-3-methylphenyl)thieno[3,2-d]pyrimidin-6-yl)methyl)-2-methyl-5-oxopyrrolidine-2-carbonitrile]	10 to 100 nM
Cc1cc(Cl)cc(-c2ncnc3cc(CN4C(=O)CCC4=O)sc23)c1CN1C[C@@H](C)NC[C@@H]1C [Example 68, 1-((4-(5-chloro-2-(((2S,5R)-2,5-dimethylpiperazin-1-yl)methyl)-3-methylphenyl)thieno[3,2-d]pyrimidin-6-yl)methyl)pyrrolidine-2,5-dione]	10 to 100 nM
Cc1cc(Cl)cc(-c2ncnc3cc(CN4C(=O)NC(C)C4=O)sc23)c1C[C@@H]1CNCCO1 (stereo partly drawn) [Example 244, 3-((4-(5-chloro-3-methyl-2-(((R)-morpholin-2-yl)methyl)phenyl)thieno[3,2-d]pyrimidin-6-yl)methyl)-5-methylimidazolidine-2,4-dione]	< 10 nM
C[C@@H]1CN(Cc2c(Cl)cc(Cl)cc2-c2ccnc3cc(CN4C(=O)C5CC5C4=O)sc23)[C@@H](C)CN1 (stereo partly drawn) [Example 43, 3-((7-(3,5-dichloro-2-(((2S,5R)-2,5-dimethylpiperazin-1-yl)methyl)phenyl)thieno[3,2-b]pyridin-2-yl)methyl)-3-azabicyclo[3.1.0]hexane-2,4-dione]	< 10 nM
Cc1cc(Cl)cc(-c2ccnc3cc(CN4C(=O)CCC4=O)sc23)c1CN1CC2CCC1CN2 (stereo not drawn) [Example 9, 1-((7-(2-((2,5-diazabicyclo[2.2.2]octan-2-yl)methyl)-5-chloro-3-methylphenyl)thieno[3,2-b]pyridin-2-yl)methyl)pyrrolidine-2,5-dione]	< 10 nM
Cc1cc(Cl)cc(-c2ncnc3cc(CN4C(=O)C5CCCN5C4=O)sc23)c1CC1CNCCO1 (stereo not drawn) [Example 187, 2-((4-(5-chloro-3-methyl-2-(morpholin-2-ylmethyl)phenyl)thieno[3,2-d]pyrimidin-6-yl)methyl)tetrahydro-1H-pyrrolo[1,2-c]imidazole-1,3(2H)-dione]	< 10 nM
Cc1cc(Cl)cc(-c2ncnc3cc(Cn4c(=O)ccn(C)c4=O)sc23)c1CC1CNCC(C)(C)O1 (stereo not drawn) [Example 192, 3-((4-(5-chloro-2-((6,6-dimethylmorpholin-2-yl)methyl)-3-methylphenyl)thieno[3,2-d]pyrimidin-6-yl)methyl)-1-methylpyrimidine-2,4(1H,3H)-dione]	< 10 nM
Cc1cc(Cl)cc(-c2ccnc3cc(CN4C(=O)C5CC5C4=O)sc23)c1C[C@@H]1CNCCO1 (stereo partly drawn) [Example 123, 3-((7-(5-chloro-3-methyl-2-(((R)-morpholin-2-yl)methyl)phenyl)thieno[3,2-b]pyridin-2-yl)methyl)-3-azabicyclo[3.1.0]hexane-2,4-dione]	< 10 nM
Cc1cc(Cl)cc(-c2ncnc3cc(CN4C(=O)CCCC4=O)sc23)c1CN1C[C@@H](C)NC[C@@H]1C [Example 69, 1-((4-(5-chloro-2-(((2S,5R)-2,5-dimethylpiperazin-1-yl)methyl)-3-methylphenyl)thieno[3,2-d]pyrimidin-6-yl)methyl)piperidine-2,6-dione]	< 10 nM
CCN1CCN(Cc2c(C)cc(Cl)cc2-c2ccnc3cc(CN4C(=O)C5C(C4=O)C5(C)C)sc23)[C@@H](C)C1 (stereo partly drawn) [Example 24, 3-((7-(5-chloro-2-(((S)-4-ethyl-2-methylpiperazin-1-yl)methyl)-3-methylphenyl)thieno[3,2-b]pyridin-2-yl)methyl)-6,6-dimethyl-3-azabicyclo[3.1.0]hexane-2,4-dione]	< 10 nM
CC1(C)C2C(=O)N(Cc3cc4ncnc(-c5cc(Cl)cc(Cl)c5CC5CNCCO5)c4s3)C(=O)C21 (stereo not drawn) [Example 226, 3-((4-(3,5-dichloro-2-(morpholin-2-ylmethyl)phenyl)thieno[3,2-d]pyrimidin-6-yl)methyl)-6,6-dimethyl-3-azabicyclo[3.1.0]hexane-2,4-dione]	< 10 nM
Cc1cc(Cl)cc(-c2ncnc3cc(CN4C(=O)CCC4=O)sc23)c1CN1[C@@H](C)CNC[C@@H]1C [Example 77, 1-((4-(5-chloro-2-(((2S,6S)-2,6-dimethylpiperazin-1-yl)methyl)-3-methylphenyl)thieno[3,2-d]pyrimidin-6-yl)methyl)pyrrolidine-2,5-dione]	< 10 nM
Cc1cc(Cl)cc(-c2ccnc3cc(CN4C(=O)C5CC5C4=O)sc23)c1CC1CNCCO1 (stereo not drawn) [Example 102, 3-((7-(5-chloro-3-methyl-2-(morpholin-2-ylmethyl)phenyl)thieno[3,2-b]pyridin-2-yl)methyl)-3-azabicyclo[3.1.0]hexane-2,4-dione]	< 10 nM
Cc1cc(Cl)cc(-c2ncnc3cc(CN4C(=O)CN(CC(F)(F)F)C4=O)sc23)c1CC1CNCCO1 (stereo not drawn) [Example 176, 3-((4-(5-chloro-3-methyl-2-(morpholin-2-ylmethyl)phenyl)thieno[3,2-d]pyrimidin-6-yl)methyl)-1-(2,2,2-trifluoroethyl)imidazolidine-2,4-dione]	< 10 nM
Cc1cc(Cl)cc(-c2ccnc3cc(Cn4c(=O)ccn(CC(F)(F)F)c4=O)sc23)c1CC1CNCCO1 (stereo not drawn) [Example 109, 3-((7-(5-chloro-3-methyl-2-(morpholin-2-ylmethyl)phenyl)thieno[3,2-b]pyridin-2-yl)methyl)-1-(2,2,2-trifluoroethyl)pyrimidine-2,4(1H,3H)-dione]	< 10 nM
Cc1cc(Cl)cc(-c2ccnc3cc(CN4C(=O)C5CC5C4=O)sc23)c1CC1CNCCOC1 (stereo not drawn) [Example 112, 3-((7-(2-((1,4-oxazepan-6-yl)methyl)-5-chloro-3-methylphenyl)thieno[3,2-b]pyridin-2-yl)methyl)-3-azabicyclo[3.1.0]hexane-2,4-dione]	< 10 nM
Cc1cc(Cl)cc(-c2ncnc3cc(CN4C(=O)CCN(CCF)C4=O)sc23)c1C[C@@H]1CNCC(C)(C)O1 [Example 257, 3-[[4-[5-chloro-2-[[(2R)-6,6-dimethylmorpholin-2-yl]methyl]-3-methyl-phenyl]thieno[3,2-d]pyrimidin-6-yl]methyl]-1-(2-fluoroethyl)hexahydropyrimidine-2,4-dione]	< 10 nM
Cc1cc(Cl)cc(-c2ccnc3cc(CN4C(=O)C5C(C4=O)C5(C)C)sc23)c1CN1CCN(C)C[C@@H]1C (stereo partly drawn) [Example 23, 3-((7-(5-chloro-2-(((S)-2,4-dimethylpiperazin-1-yl)methyl)-3-methylphenyl)thieno[3,2-b]pyridin-2-yl)methyl)-6,6-dimethyl-3-azabicyclo[3.1.0]hexane-2,4-dione]	< 10 nM
Cc1cc(Cl)cc(-c2ncnc3cc(Cn4ccc(=O)[nH]c4=O)sc23)c1C[C@@H]1CNCC(C)(C)O1 [Example 267, (R)-1-((4-(5-chloro-2-((6,6-dimethylmorpholin-2-yl)methyl)-3-methylphenyl)thieno[3,2-d]pyrimidin-6-yl)methyl)pyrimidine-2,4(1H,3H)-dione]	< 10 nM
CCN1CCN(Cc2c(C)cc(Cl)cc2-c2ccnc3cc(CN4C(=O)CCC4=O)sc23)[C@@H](C)C1 [Example 11, (S)-1-((7-(5-chloro-2-((4-ethyl-2-methylpiperazin-1-yl)methyl)-3-methylphenyl)thieno[3,2-b]pyridin-2-yl)methyl)pyrrolidine-2,5-dione]	< 10 nM
Cc1cc(Cl)cc(-c2ncnc3cc(CN4C(=O)COC4=O)sc23)c1CC1CNCCO1 (stereo not drawn) [Example 178, 3-((4-(5-chloro-3-methyl-2-(morpholin-2-ylmethyl)phenyl)thieno[3,2-d]pyrimidin-6-yl)methyl)oxazolidine-2,4-dione]	< 10 nM

Source: patent US11084829B2, “Ubiquitin-specific-processing protease 7 (USP7) modulators and uses thereof” (RAPT THERAPEUTICS, INC., priority 2018, dated 2021)
